The target in assay [1] is T1, Progesterone receptor (Homo sapiens, UniProt P06401).
T1 sequence (P06401 whole entry): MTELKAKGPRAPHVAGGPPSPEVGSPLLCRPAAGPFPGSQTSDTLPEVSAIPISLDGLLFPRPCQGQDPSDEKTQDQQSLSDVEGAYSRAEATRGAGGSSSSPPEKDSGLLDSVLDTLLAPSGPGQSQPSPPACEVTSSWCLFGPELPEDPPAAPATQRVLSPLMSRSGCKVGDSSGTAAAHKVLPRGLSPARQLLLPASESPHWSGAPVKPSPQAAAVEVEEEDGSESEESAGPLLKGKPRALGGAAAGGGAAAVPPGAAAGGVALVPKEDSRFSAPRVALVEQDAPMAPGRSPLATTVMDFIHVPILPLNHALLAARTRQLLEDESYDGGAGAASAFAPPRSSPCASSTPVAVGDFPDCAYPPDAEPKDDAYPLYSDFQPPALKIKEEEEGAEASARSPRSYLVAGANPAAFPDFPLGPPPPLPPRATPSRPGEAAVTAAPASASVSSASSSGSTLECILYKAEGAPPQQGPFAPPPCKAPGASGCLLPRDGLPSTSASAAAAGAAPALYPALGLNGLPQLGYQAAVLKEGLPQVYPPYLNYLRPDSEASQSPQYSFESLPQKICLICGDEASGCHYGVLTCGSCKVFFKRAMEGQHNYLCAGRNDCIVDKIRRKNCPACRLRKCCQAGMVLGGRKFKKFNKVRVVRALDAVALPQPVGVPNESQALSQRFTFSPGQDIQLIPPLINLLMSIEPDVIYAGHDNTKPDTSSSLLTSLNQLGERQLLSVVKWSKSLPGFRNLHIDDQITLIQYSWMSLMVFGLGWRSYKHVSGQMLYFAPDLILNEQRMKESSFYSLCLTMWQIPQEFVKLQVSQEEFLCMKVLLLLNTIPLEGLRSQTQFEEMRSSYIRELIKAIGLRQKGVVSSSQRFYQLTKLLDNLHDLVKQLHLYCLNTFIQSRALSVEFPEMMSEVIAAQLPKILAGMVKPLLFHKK
In words: Inhibitory concentration against progesterone stimulated alkaline phosphatase activity in T47D human breast carcinoma cell line. In kind it is cell-based.

Assay [2] addresses T1, Progesterone receptor. The experiment in a line: Inhibitory concentration against progesterone induced PRE-luciferase activity in CV-cells. Also on record: species or system Oryctolagus cuniculus.
The target in assay [3] is T1, Progesterone receptor. In words: Binding affinity towards progesterone receptor was measured.

A value given as a limit tells only on which side of the number the result lay.

This is an account of results in ChEMBL document CHEMBL1133814, “Synthesis and progesterone receptor antagonist activities of 6-aryl benzimidazolones and benzothiazolones” (Bioorg Med Chem Lett, 2001).

`S=c1[nH]c2cc(-c3cccc(Cl)c3)ccc2n1Cc1ccccc1` came in with an IC50 against Progesterone receptor [1] of more than 10000 nM.
Take `O=[N+]([O-])c1cccc(-c2ccc3c(c2)nc(O)n3Cc2ccccc2)c1`: the IC50 at Progesterone receptor [2] and against Progesterone receptor [1] was more than 10000 nM each time. In addition, the Ki at Progesterone receptor [3] is more than 10000 nM.
Regarding `O=c1[nH]c2ccc(-c3cccc([N+](=O)[O-])c3)cc2s1`, the IC50 against Progesterone receptor [2] is 326 nM; at Progesterone receptor [1], 83.8 nM. The affinity on Progesterone receptor [3] corresponds to a Ki of 332 nM.
With `S=c1[nH]c2ccc(-c3cccc(Cl)c3)cc2n1Cc1ccccc1`, the Ki at Progesterone receptor [3] was 150 nM. Moreover, the IC50 against Progesterone receptor [1] is 17 nM.
For the compound `O=c1[nH]c2ccc(-c3cccc([N+](=O)[O-])c3)cc2n1Cc1ccccc1`, the IC50 is 257 nM against Progesterone receptor [2] and 62 nM on Progesterone receptor [1]. At Progesterone receptor [3], the Ki was found to be 714 nM.
For `CC(C)n1c(=O)[nH]c2ccc(-c3cccc([N+](=O)[O-])c3)cc21`, in that order: 136 nM, 73.1 nM and 525 nM.
For `CCn1c(=O)[nH]c2ccc(-c3cccc(Cl)c3)cc21`, the results for the IC50 on Progesterone receptor [2] and at Progesterone receptor [1] were 106 nM and 29.2 nM, respectively. The compound also showed a Ki at Progesterone receptor [3] of approximately 1000 nM.
Take `CC(C)n1c(=O)[nH]c2ccc(-c3cccc(Cl)c3)cc21`: the values for the IC50 on Progesterone receptor [2] and against Progesterone receptor [1] were 412 nM and 113 nM, respectively. The compound also displayed an inhibition constant Ki on Progesterone receptor [3] of 525 nM.
`Cn1c(=O)[nH]c2ccc(-c3cccc(Cl)c3)cc21` registered an IC50 against Progesterone receptor [1] of 1000 nM. In other words, the single-digit micromolar range.
At Progesterone receptor [3], `O=c1[nH]c2ccc(-c3cccc(Cl)c3)cc2n1Cc1ccccc1` displayed a Ki of 521 nM. The compound also returned an IC50 against Progesterone receptor [1] of 113 nM.
On Progesterone receptor [3], `Cn1c(=O)[nH]c2ccc(-c3cccc([N+](=O)[O-])c3)cc21` displayed a Ki of more than 10000 nM. The compound also displayed an IC50 at Progesterone receptor [1] of 1000 nM.
For `O=[N+]([O-])c1cccc(-c2ccc3[nH]c(=S)n(Cc4ccccc4)c3c2)c1`, in that order: 30 nM and 10 nM.
On to `O=c1[nH]c2ccc(-c3cccc(Cl)c3)cc2s1`, for which the IC50 amounted to 265 nM against Progesterone receptor [2] and 460 nM against Progesterone receptor [1]. For the same compound, at Progesterone receptor [3], the Ki was 127 nM.
For the compound `Oc1nc2cc(-c3cccc(Cl)c3)ccc2n1Cc1ccccc1`, the half-inhibitory concentration (IC50) at Progesterone receptor [2] was 3060 nM; at Progesterone receptor [1] it was more than 10000 nM. Besides, the affinity on Progesterone receptor [3], expressed as Ki, was 3130 nM.

Broadly, the IC50 is the concentration at which inhibition is half-maximal. A word on the Ki: it is the dissociation constant of the complex between target and ligand, obtained from inhibition or displacement. A higher Ki goes with a looser hold on the target.
